Measured values as given in patent publication US20260308184A1, “SUBSTITUTED PYRIMIDINEDIONE COMPOUNDS, COMPOSITIONS, AND USES THEREOF” (LAKEWOOD AMEDEX, INC., priority 2023, published 2026).
In brackets after ≈: the same amount, converted by molar mass.

How the values were obtained:
Test in all cases: Minimum Inhibitory Concentration, broth microdilution
Assay type in all cases: cell-based
Settings in all cases: pH 4-5, Mueller Hinton Broth, 18 to 24 hours
[1] = tested on: Pseudomonas aeruginosa (6160)
Experimental: (§1) MIC testing is conducted using the broth (Mueller Hinton Broth) microdilution procedures relevant to each organism group as established by the Clinical and Laboratory Standards Institute (CLSI; 3-7). MIC plates are prepared in accordance with CLSI (3-7). To prepare the test plates, automated liquid handlers are used to conduct serial dilutions and liquid transfers. Automated liquid handlers utilized in this study include the Multidrop 384 (Labsystems, Helsinki, Finland) and the Biomek 2000 (Beckman Coulter, Fullerton CA). The solution is diluted to desired pH using 1 M Citric Acid or 1 M NaOH buffer. A standardized inoculum of each test organism is prepared per CLSI methods (3, 5-7) to equal a 0.5 McFarland standard in the appropriate media followed by an additional 1:20 dilution (1:10 for anaerobes).
(§2) The plates are then inoculated with 10 μL of the diluted 0.5 McFarland suspension using the Biomek 2000 from low to high drug concentration, resulting in a final concentration of approximately 5×10^5 CFU/mL per well. An un-inoculated plate is incubated for the purpose of assessing solubility of the drug in the test media. The plates are stacked 3 to 4 high, covered with a sterile lid on the top plate, and incubated for 18 to 24 hours according to CLSI. The MIC is recorded as the lowest concentration of respective compound that inhibited visible growth of the organism.

[2] = tested on: Pseudomonas aeruginosa (0103)
Experimental: as §1, §2

Escherichia coli (0102) = tested on: Escherichia coli (0102)
Experimental: as §1, §2

Escherichia coli (6098) = tested on: Escherichia coli (6098)
Experimental: as §1, §2

Escherichia coli (6260) = tested on: Escherichia coli (6260)
Experimental: as §1, §2

[3] = tested on: Pseudomonas aeruginosa (6234)
Experimental: as §1, §2

Cc1cn([C@H]2C[C@H](O)[C@@H](COP(=O)(O)OCCCCO)O2)c(=O)[nH]c1=O [R-9]
MIC [1]: 100 mg/mL (≈ 254 mM) | MIC [2]: 100 mg/mL (≈ 254 mM) | MIC (Escherichia coli (0102)): 100 mg/mL (≈ 254 mM) | MIC (Escherichia coli (6098)): 100 mg/mL (≈ 254 mM) | MIC (Escherichia coli (6260)): 100 mg/mL (≈ 254 mM) | MIC [3]: 50 mg/mL (≈ 127 mM)
